The text below walks through data of patent US9938292B2 (GUANGDONG ZHONGSHENG PHARMACEUTICAL CO., LTD, priority 2014, dated 2018).

For the experiment, the system named is Hedgehog signaling pathway. The experiment is described as follows: Gli-Luc luciferase reporter gene assay in C3H10T1/2/Gli-Luc cells under Shh-N stimulation. Type of experiment: cell-based. The note with it: luciferase RLU, read-out: biological activity: IC50 of the inhibitory activities of compounds on the hedgehog pathway. In outline: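 C3H10T1/2 cells stably carrying a Gli-responsive luciferase reporter were stimulated with 30 nM Shh-N conditioned medium plus compound (7-point dilutions, duplicate) for 24 h at 37 °C. Luciferase luminescence read from lysates; IC50 by sigmoidal fit of RLU versus log concentration.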
On the technique in general: A reporter such as luciferase makes a cellular process visible.

SMILES strings stand for the structures. Like-named read-outs stand apart in the source and are kept apart here. Where only a bound is given, the exact number is not on record here.

As for `COc1c(NC(=O)c2ccc(N3C[C@@H](C)O[C@@H](C)C3)nc2)cnc2c(-c3ccc(C#N)cc3)cccc12` [Embodiment 241, N-(8-(4-cyanophenyl)-4-methoxyquinolin-3-yl)-6-(2,6-dimethylmorpholino-4-yl) nicotinamide], the half-maximal inhibitory concentration (IC50) (in general, the midpoint of a concentration-inhibition curve) (Mus musculus, C3H 10T1/2, 24 h) is 100 to 500 nM. On the same count and under the same terms, the same measure for `COc1c(C(=O)Nc2ccc(N3C[C@@H](C)O[C@@H](C)C3)cc2)cnc2c(-c3ccc(C#N)cc3)cccc12` [Embodiment 242, 8-(4-cyanophenyl)-N-(4-((2S,6R)-2,6-dimethylmorpholino)phenyl)-4-methoxyquinoline-3-carboxamide]: at most 50 nM; for `COc1c(C(=O)Nc2ccc(N3C[C@@H](C)O[C@@H](C)C3)nc2)cnc2c(-c3ccc(C#N)cc3)cccc12` [Embodiment 243, 8-(4-cyanophenyl)-N-(6-((2S,6R)-2,6-dimethylmorpholino)pyridin-3-yl)-4-methoxyquinoline-3-carboxamide]: at most 50 nM. Same read-out and setting: to `C[C@@H]1CN(c2ccc(NC(=O)c3cnc4c(-c5ccc(C#N)cc5)cccc4c3C3CC3)cn2)C[C@H](C)O1` [Embodiment 244, 8-(4-cyanophenyl)-4-cyclopropyl-N-(6-((2S,6R)-2,6-dimethylmorpholino)pyridin-3-yl) quinoline-3-carboxamide] belongs at most 50 nM. As for `CCC(=O)N1[C@H](C)CN(c2ccc(NC(=O)c3cnc4c(-c5ccc(C#N)cc5)cccc4c3OC)cn2)C[C@@H]1C` [Embodiment 245, 8-(4-cyanophenyl)-N-(6-((3S,5R)-3,5-dimethyl-4-propionylpiperazin-1-yl)pyridin-3-yl)-4-methoxyquinoline-3-carboxamide], where the note is “Mus musculus, C3H 10T1/2, 24 h”, the IC50 lay in the range of 100 to 500 nM.

As to `CCC(=O)N1[C@H](C)CN(c2ccc(NC(=O)c3cnc4c(-c5ccc(C#N)cc5)cccc4c3C3CC3)cn2)C[C@@H]1C` [Embodiment 246], for the setting “24 h”, the IC50 is at most 50 nM. On to `COc1c(N2CCn3c(nnc3C(F)(F)F)C2)cnc2c(-c3ccc(C#N)cc3)cccc12` [Embodiment 247, 4-(4-methoxy-3-(3-trifluoromethyl-5,6-dihydro-8H-[1,2,4]triazolo[4,3-a]pyrazin-7-yl)quinolin-8-yl)benzonitrile], for which the IC50 (Mus musculus, C3H 10T1/2, 24 h) lay within 100 to 500 nM. The same measure, in the same setting: to `COc1c(N2CCN(C(=O)C3CC3)CC2)cnc2c(-c3ccc(C#N)cc3)cccc12` [Embodiment 248, 4-(3-(4-cyclopropanecarbonylpiperazin-1-yl)-4-methoxyquinolin-8-yl)benzonitrile] belongs at most 50 nM. `COc1c(N2CCN(S(=O)(=O)C(C)C)CC2)cnc2c(-c3ccc(C#N)cc3)cccc12` [Embodiment 249, 4-(4-methoxy-3-(4-(propane-2-sulfonyl)piperazin-1-yl)-quinolin-8-yl)benzonitrile]: under “Mus musculus, C3H 10T1/2, 24 h”, the IC50 is at most 50 nM. Still for that read-out and setting: the same measure for `CCC(=O)N1[C@H](C)CN(c2ccc(-c3nc4c(-c5ccc(C#N)cc5)cccc4[nH]3)cn2)C[C@@H]1C` [Embodiment 250, 4-(2-(6-(3,5-dimethyl-4-propionylpiperazin-1-yl)pyridin-3-yl)-1H-benzo[d]imidazol-4-yl)benzonitrile]: 100 to 500 nM; for `COc1c(-c2ccc(N3CC(C)(C)C(O)C(C)(C)C3)cc2)cnc2c(-c3ccc(C#N)cc3)cccc12` [Embodiment 251]: at most 50 nM. Still for that read-out and setting: the same measure for `COc1c(N2CCN(c3ccc(C(C)(C)O)cn3)CC2=O)cnc2c(-c3ccc(C#N)cc3)cccc12` [Embodiment 252, 4-(3-(4-(5-(2-hydroxypropan-2-yl)pyridin-2-yl)-2-oxopiperazin-1-yl-4-methoxyquinolin-8-yl))benzonitrile]: 100 to 500 nM; for `COc1c(N2CCN(c3ccc(C(C)(C)O)cn3)C(=O)C2)cnc2c(-c3ccc(C#N)cc3)cccc12` [Embodiment 253, 4-(3-(4-(5-(2-hydroxypropan-2-yl)pyridin-2-yl)-3-oxopiperazin-1-yl-4-methoxyquinolin-8-yl))benzonitrile]: 100 to 500 nM.

As for `CC(C)(O)c1ccc(N2CCN(c3cnc4c(-c5ccc(C#N)cc5)cccc4c3C3CC3)C(=O)C2)nc1` [Embodiment 254, 4-(4-cyclopropyl-3-(4-(5-(2-hydroxypropan-2-yl)pyridin-2-yl)-2-oxopiperazin-1-yl)quinolin-8-yl)benzonitrile], the half-inhibitory concentration (IC50) (Mus musculus, C3H 10T1/2, 24 h) was at most 50 nM. Still for that read-out and setting: the same measure for `CC(C)(O)c1ccc(N2CC3(C2)CN(c2cnc4c(-c5ccc(C#N)cc5)cccc4c2C2CC2)C3)nc1` [Embodiment 255, 4-(4-cyclopropyl-3-(6-(5-(2-hydroxypropan-2-yl)pyridin-2-yl)-2,6-diazaspiro[3.3]heptan-2-yl)quinolin-8-yl)benzonitrile]: 100 to 500 nM; for `CC(C)(O)c1ccc(N2CCC3(CC2)CCN(c2cnc4c(-c5ccc(C#N)cc5)cccc4c2C2CC2)CC3)nc1` [Embodiment 256, 4-(4-cyclopropyl-3-(9-(5-(2-hydroxypropan-2-yl)pyridin-2-yl)-3,9-diazaspiro[5.5]undecan-3-yl)quinolin-8-yl)benzonitrile]: 100 to 500 nM; for `Cc1nc(N2C[C@@H](C)O[C@@H](C)C2)ccc1-c1cnc2c(-c3ccc(C#N)cc3)cccc2c1C1CC1` [Embodiment 257, 4-(4-cyclopropyl-3-(6-((2S,6R)-2,6-dimethylmorpholino)-2-methylpyridin-3-yl)quinolin-8-yl)benzonitrile]: at most 50 nM. On the same count and under the same terms, to `CC(C)c1c(-c2ccc(N3C[C@@H](C)O[C@@H](C)C3)nc2)cnc2c(-c3ccc(C#N)cc3)cccc12` [Embodiment 258, 4-(3-(6-((2S,6R)-2,6-dimethylmorpholino)pyridin-3-yl)-4-isopropylquinolin-8-yl) benzonitrile] belongs 100 to 500 nM; to `C[C@@H]1CN(c2ccc(-c3cnc4c(-c5ccc(C#N)cc5)cccc4c3C3CCC3)cn2)C[C@H](C)O1` [Embodiment 259, 4-(4-cyclobutyl-3-(6-((2S,6R)-2,6-dimethylmorpholino)pyridin-3-yl)quinolin-8-yl) benzonitrile], 50 to 100 nM; to `C[C@@H]1CN(c2ccc(-c3cnc4c(-c5ccc(C#N)cc5)cccc4c3C3=CCCC3)cn2)C[C@H](C)O1` [Embodiment 260], 100 to 500 nM. On the same count and under the same terms, to `CC(C)c1ccc(N2CCN(c3cnc4c(-c5ccc(C#N)cc5)cccc4c3C3CC3)CC2)nc1` [Embodiment 261, 4-(4-((4-cyclopropyl-35-isopropylpyridin-2-yl)-3-)-quinolin-8-yl)benzonitrile] belongs 100 to 500 nM; to `CC(C)(O)c1ccc(C2(O)CCN(c3cnc4c(-c5ccc(C#N)cc5)cccc4c3C3CC3)CC2)nc1` [Embodiment 262], at most 50 nM; to `C[C@@H]1CN(c2ccc(-c3cnc4c(-c5ccccn5)cccc4c3C3CC3)cc2)C[C@H](C)O1` [Embodiment 263, (2S,6R)-4-(5-(4-8-cyclopropyl-(2-pyridinyl)quinolin-3-yl)pyridin-2-yl)-2,6-dimethylmorpholine], at most 50 nM.

In the case of `C[C@@H]1CN(c2ccc(-c3cnc4c(-c5ccc(OC(F)(F)F)cc5)cccc4c3C3CC3)cn2)C[C@H](C)O1` [Embodiment 265, (2S,6R)-4-(5-(4-cyclopropyl-8-(4-(trifluoromethoxy)phenyl)quinolin-3-yl)pyridin-2-yl)-2,6-dimethylmorpholine], the IC50 (Mus musculus, C3H 10T1/2, 24 h) was in the range of 50 to 100 nM. Still for that read-out and setting: to `C[C@H]1CN(c2ccc(-c3cnc4c(-c5ccc(C#N)cc5)cccc4c3C3CC3)cn2)C[C@H](C)O1` [Embodiment 266, 4-(4-cyclopropyl-3-(6-((2S,6S)-2,6-dimethylmorpholino)pyridin-3-yl)quinolin-8-yl) benzonitrile] belongs at most 50 nM. On the same count and under the same terms, the same measure for `CS(=O)(=O)CCC(=O)N1CCN(c2cnc3c(-c4ccc(C#N)cc4)cccc3c2C2CC2)CC1` [Embodiment 267, 4-(4-cyclopropyl-3-(4-(3-(methylsulfonyl)-3-propanoyl))quinolin-8-yl) benzonitrile]: at most 50 nM; for `COc1c(N2CCC(N3CCCC3)CC2)cnc2c(-c3ccc(C#N)cc3)cccc12` [Embodiment 268, 4-(4-methoxy-3-(4-(pyrrolidin-1-yl)piperidin-1-yl)quinolin-8-yl)benzonitrile]: 100 to 500 nM. On the same count and under the same terms, the same measure for `C[C@@H]1CN([C@@H]2CCN(c3cnc4c(-c5ccc(C#N)cc5)cccc4c3C3CC3)C[C@@H]2F)C[C@H](C)O1` [Embodiment 269, 4-(4-cyclopropyl-3-((3S,4R)-4-((2S,6R)-2,6-dimethylmorpholino)-3-fluoropiperidin-1-yl)quinolin-8-yl)benzonitrile]: at most 50 nM; for `COc1c(N2CCN(c3ccc(C(C)C)cn3)CC2)cnc2c(-c3ccc(C#N)cc3)cccc12` [Embodiment 270, 4-(3-(4-(5-isopropylpyridin-2-yl)-3-)-4-methoxyquinolin-8-yl) benzonitrile]: 50 to 100 nM; for `N#Cc1ccc(-c2cccc3c(C4CC4)c(N4CCN(c5cc[nH]c(=O)c5)CC4)cnc23)cc1` [Embodiment 271, 4-(4-cyclopropyl-3-(4-(2-oxo-1,2-dihydropyridin-4-yl)piperazin-1-yl)quinolin-8-yl) benzonitrile]: 100 to 500 nM.
